{"source": "patent US8168651B2", "about": "“Protein kinase modulators” (Cylene Pharmaceuticals, Inc., priority 2008, dated 2012)", "key": {"PARP-HSA enzyme": {"molecular_target": "PARP-HSA enzyme (Homo sapiens (Human), UniProt P09874)", "sequence (P09874 whole entry)": "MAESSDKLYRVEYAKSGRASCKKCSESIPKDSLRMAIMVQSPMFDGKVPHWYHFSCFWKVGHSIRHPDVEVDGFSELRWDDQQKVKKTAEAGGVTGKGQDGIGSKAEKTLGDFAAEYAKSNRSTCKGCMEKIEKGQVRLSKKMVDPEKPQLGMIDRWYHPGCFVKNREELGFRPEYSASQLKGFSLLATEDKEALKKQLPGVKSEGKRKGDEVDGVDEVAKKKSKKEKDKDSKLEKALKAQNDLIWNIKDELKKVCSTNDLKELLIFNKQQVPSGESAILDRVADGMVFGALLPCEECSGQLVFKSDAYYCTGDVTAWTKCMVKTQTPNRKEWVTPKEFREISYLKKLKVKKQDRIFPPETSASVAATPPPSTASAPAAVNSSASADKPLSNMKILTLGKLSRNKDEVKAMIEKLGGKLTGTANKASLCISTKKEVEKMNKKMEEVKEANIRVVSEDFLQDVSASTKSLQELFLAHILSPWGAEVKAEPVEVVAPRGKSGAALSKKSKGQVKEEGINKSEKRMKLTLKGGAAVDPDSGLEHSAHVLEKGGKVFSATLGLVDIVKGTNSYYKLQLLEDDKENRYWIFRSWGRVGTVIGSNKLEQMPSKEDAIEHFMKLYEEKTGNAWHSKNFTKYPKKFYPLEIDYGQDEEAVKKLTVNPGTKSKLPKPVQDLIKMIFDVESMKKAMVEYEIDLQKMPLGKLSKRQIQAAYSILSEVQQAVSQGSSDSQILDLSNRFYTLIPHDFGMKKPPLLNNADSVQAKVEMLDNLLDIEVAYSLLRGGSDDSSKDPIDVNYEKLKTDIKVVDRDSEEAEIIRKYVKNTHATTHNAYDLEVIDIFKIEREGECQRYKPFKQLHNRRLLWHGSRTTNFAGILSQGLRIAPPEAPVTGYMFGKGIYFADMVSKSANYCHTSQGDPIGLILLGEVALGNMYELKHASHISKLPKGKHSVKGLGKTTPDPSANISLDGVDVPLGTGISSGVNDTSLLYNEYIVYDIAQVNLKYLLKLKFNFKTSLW", "assay": "PARP assay (chemiluminescent PARP assay kit, Trevigen)", "type": "biochemical", "conditions": "for pIC50: read-out: PARP Inhibition IC50", "protocol": "Modulatory activity of compounds described herein was assessed in vitro in cell-free CK2 assays. Modulatory activity of compounds described herein also are assessed in vitro in cell-free PARP assays. These assays are described hereafter.\nPARP assays are conducted using a chemiluminescent PARP assay kit (Trevigen). Briefly, reactions are performed in Histone-coated strip wells, by adding 10 microliters test compound dissolved in 1×PARP Buffer (prepared by mixing 20×PARP buffer diluted with high-purity water) and 15 microliters diluted PARP-HSA enzyme (diluted in 1×PARP buffer, 0.1 unit per well) to 25 microliters PARP cocktail (prepared from 10×PARP cocktail and 10× activated DNA, both 2.5 microliters per well and 20 microliters per well of 1×PARP buffer). The reactions are incubated at ambient temperature for 60 minutes, then the liquid was removed. After washing the wells four times with PBS (200 ul), 50 microliters of STREP-HRP (Horseradish Peroxidase) solution (diluted 500-fold in 1× Strep-Diluent) was added and the reactions were allowed to incubate for 30 minutes at ambient temperature. The liquid was removed and, after washing the wells four times with PBS (200 ul), 50 microliters each of PeroxyGlo A and B (Chemiluminescent Horseradish Peroxidase substrates) are added and the resulting chemiluminescence quantified on the SpectraMax M5 plate reader."}, "recombinant human CK2": {"molecular_target": "recombinant human CK2 (Homo sapiens (Human), UniProt P68400)", "sequence (P68400 whole entry)": "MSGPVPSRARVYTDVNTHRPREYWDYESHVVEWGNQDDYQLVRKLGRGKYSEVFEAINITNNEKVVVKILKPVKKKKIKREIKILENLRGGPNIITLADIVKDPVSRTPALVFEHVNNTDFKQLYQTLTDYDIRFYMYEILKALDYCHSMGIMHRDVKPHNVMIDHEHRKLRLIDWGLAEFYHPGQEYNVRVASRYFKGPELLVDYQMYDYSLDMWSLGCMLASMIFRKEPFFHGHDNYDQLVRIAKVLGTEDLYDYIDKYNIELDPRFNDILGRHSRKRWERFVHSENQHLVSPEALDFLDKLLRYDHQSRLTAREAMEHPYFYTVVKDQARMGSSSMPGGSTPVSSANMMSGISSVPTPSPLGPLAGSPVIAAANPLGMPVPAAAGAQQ", "sequence (P67870 whole entry partner)": "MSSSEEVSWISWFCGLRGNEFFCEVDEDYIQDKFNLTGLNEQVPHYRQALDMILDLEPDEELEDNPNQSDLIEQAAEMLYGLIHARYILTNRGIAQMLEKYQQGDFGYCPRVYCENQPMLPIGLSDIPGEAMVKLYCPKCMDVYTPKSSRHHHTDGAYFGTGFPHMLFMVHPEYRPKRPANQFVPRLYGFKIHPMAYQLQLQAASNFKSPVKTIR", "assay": "CK2 assay (cell-free, 33P-ATP filter plate)", "type": "biochemical", "conditions": "for inhibition at 5 µM: read-out: CK2 Inhibition; for inhibition at 10 µM: read-out: CK2 % inhib @ 10 uM"}, "MV-4-11": {"tested_on": "MV-4-11", "assay": "Cell proliferation modulatory activity, MV-4-11", "type": "cell-based", "conditions": "Homo sapiens, MV4-11"}, "Jurkat": {"tested_on": "Jurkat", "assay": "Cell proliferation modulatory activity, Jurkat", "type": "cell-based", "conditions": "Homo sapiens"}, "K-562 [1]": {"tested_on": "K-562", "assay": "Cell proliferation modulatory activity, K-562", "type": "cell-based", "conditions": "Homo sapiens, K562"}, "recombinant human PIM1": {"molecular_target": "recombinant human PIM1 (Homo sapiens (Human), UniProt P11309)", "sequence (P11309 whole entry)": "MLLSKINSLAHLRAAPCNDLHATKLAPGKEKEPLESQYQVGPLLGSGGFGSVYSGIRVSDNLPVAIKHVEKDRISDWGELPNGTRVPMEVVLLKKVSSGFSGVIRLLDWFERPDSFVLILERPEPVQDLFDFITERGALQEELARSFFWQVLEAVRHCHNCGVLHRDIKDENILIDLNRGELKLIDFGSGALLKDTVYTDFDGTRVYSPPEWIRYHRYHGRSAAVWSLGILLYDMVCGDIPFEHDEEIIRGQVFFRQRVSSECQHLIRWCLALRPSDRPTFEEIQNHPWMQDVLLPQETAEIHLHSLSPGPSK", "assay": "PIM-1 kinase activity in cell-free in vitro assay", "type": "biochemical", "conditions": "for inhibition at 0.5 µM: 500 nM compound, read-out: PIM-1: % inh 500 nM"}, "Flt3": {"molecular_target": "Flt3 (Homo sapiens (Human), UniProt P36888)", "sequence (P36888 27-993)": "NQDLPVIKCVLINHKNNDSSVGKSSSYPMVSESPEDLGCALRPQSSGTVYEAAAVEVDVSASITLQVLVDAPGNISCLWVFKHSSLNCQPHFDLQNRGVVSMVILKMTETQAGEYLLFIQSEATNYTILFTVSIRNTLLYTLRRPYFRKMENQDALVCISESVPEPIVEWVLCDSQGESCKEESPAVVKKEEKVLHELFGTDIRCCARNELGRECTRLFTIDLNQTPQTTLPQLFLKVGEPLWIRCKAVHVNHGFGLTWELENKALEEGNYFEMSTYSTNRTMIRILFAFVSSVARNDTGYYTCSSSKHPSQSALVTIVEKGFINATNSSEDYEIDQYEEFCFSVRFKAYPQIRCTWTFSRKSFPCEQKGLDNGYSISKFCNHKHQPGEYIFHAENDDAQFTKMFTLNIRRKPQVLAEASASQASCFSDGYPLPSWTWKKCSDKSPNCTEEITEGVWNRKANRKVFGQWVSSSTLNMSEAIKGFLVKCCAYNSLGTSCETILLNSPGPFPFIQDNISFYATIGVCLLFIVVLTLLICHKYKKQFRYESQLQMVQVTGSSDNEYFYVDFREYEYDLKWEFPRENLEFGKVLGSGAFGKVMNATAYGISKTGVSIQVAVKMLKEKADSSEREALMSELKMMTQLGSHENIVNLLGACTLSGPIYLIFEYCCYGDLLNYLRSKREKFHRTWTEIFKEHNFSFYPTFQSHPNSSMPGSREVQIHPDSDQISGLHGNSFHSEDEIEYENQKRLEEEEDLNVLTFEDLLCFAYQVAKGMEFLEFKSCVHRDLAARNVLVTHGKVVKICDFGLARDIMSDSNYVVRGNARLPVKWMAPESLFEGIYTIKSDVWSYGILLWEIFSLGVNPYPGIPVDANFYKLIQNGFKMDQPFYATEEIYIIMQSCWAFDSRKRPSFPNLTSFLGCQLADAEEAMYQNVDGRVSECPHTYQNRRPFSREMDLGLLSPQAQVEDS", "assay": "FLT-3 kinase activity in cell free in vitro assay", "type": "biochemical", "conditions": "cell-free; read-out: FLT-3"}, "[2]": {"tested_on": "HCT-116 human colorectal carcinoma cells", "assay": "Cell-proliferation assay using Alamar Blue dye", "type": "cell-based", "conditions": "Homo sapiens, HCT-116, read-out: HCT-116 (uM), cell proliferation modulatory activity, HCT-116, second column"}, "[3]": {"tested_on": "PC-3 human prostatic cancer cells", "assay": "Cell-proliferation assay using Alamar Blue dye", "type": "cell-based", "conditions": "read-out: PC3 IC50", "protocol": "A representative cell-proliferation assay protocol using Alamar Blue dye (stored at 4° C., use 20 ul per well) is described hereafter.\n• a. Split and trypsinize cells. • b. Count cells using hemocytometer. • c. Plate 4,000-5,000 cells per well in 100 μl of medium and seed into a 96-well plate according to the following plate layout. Add cell culture medium only to wells B10 to B12. Wells B1 to B9 have cells but no compound added.\n• d. Add 100 μl of 2× drug dilution to each well in a concentration shown in the plate layout above. At the same time, add 100 μl of media into the control wells (wells B10 to B12). Total volume is 200 μl/well. • e. Incubate four (4) days at 37° C., 5% CO2 in a humidified incubator. • f. Add 20 μl Alamar Blue reagent to each well. • g. Incubate for four (4) hours at 37° C., 5% CO2 in a humidified incubator. • h. Record fluorescence at an excitation wavelength of 544 nm and emission wavelength of 590 nm using a microplate reader.\nIn the assays, cells are cultured with a test compound for approximately four days, the dye then is added to the cells and fluorescence of […] dye is detected after approximately four hours. Different types of cells can be utilized in the assays (e.g., HCT-116 human colorectal carcinoma cells, PC-3 human prostatic cancer cells and MiaPaca human pancreatic carcinoma cells). Anti-proliferative effects of representative compounds are provided hereafter"}, "K-562 [4]": {"tested_on": "K-562", "assay": "K-562 IC50 (Table 46)", "type": "cell-based", "conditions": "Homo sapiens, K562"}, "MDA MB231": {"tested_on": "MDA MB231", "assay": "MDA MB231 IC50 (Table 46)", "type": "cell-based", "conditions": "Homo sapiens, MDA-MB-231"}, "MV-411": {"tested_on": "MV-411", "assay": "MV-411 IC50 (Table 46)", "type": "cell-based", "conditions": "Homo sapiens, MV4-11"}}, "note": "pIC50: −log10 of the molar value. Like-named read-outs stand apart in the source and are kept apart here.", "data": [{"smiles": "O=C(O)c1ccc2c(c1)[nH]c(=O)c1ccccc12", "values": [{"measurement": "pIC50", "setting": "PARP-HSA enzyme", "value": 7.15}, {"measurement": "inhibition at 5 µM", "setting": "recombinant human CK2", "value": 28, "unit": "%"}]}, {"smiles": "O=C(O)c1ccc2c3ccccc3c(=O)n(CCCO)c2c1", "values": [{"measurement": "pIC50", "setting": "PARP-HSA enzyme", "value": 7.22}, {"measurement": "inhibition at 5 µM", "setting": "recombinant human CK2", "value": 29, "unit": "%"}]}, {"smiles": "O=c1[nH]c2cc(-c3nnn[nH]3)ccc2c2ccccc12", "values": [{"measurement": "pIC50", "setting": "PARP-HSA enzyme", "value": 7.52}]}, {"smiles": "O=C(O)c1ccc2c(c1)[nH]c(=O)c1ccncc12", "values": [{"measurement": "pIC50", "setting": "PARP-HSA enzyme", "value": 6.00}]}, {"smiles": "O=C(Nc1ccccc1)c1ccc2c(c1)[nH]c(=O)c1ccsc12", "values": [{"measurement": "PARP % inhib @ 1 uM", "setting": "PARP-HSA enzyme", "value": 0, "unit": "%"}, {"measurement": "inhibition at 10 µM", "setting": "recombinant human CK2", "value": 22, "unit": "%"}]}, {"smiles": "COc1ccc(NC(=O)c2ccc3c(c2)[nH]c(=O)c2ccsc23)c(OC)c1", "values": [{"measurement": "PARP % inhib @ 1 uM", "setting": "PARP-HSA enzyme", "value": 0, "unit": "%"}, {"measurement": "inhibition at 10 µM", "setting": "recombinant human CK2", "value": 3, "unit": "%"}]}, {"smiles": "O=C(Nc1ccc(N2CCOCC2)cc1)c1ccc2c(c1)[nH]c(=O)c1ccsc12", "values": [{"measurement": "PARP % inhib @ 1 uM", "setting": "PARP-HSA enzyme", "value": 0, "unit": "%"}, {"measurement": "inhibition at 10 µM", "setting": "recombinant human CK2", "value": -3, "unit": "%"}]}, {"smiles": "COc1ccccc1NC(=O)c1ccc2c(c1)[nH]c(=O)c1ccsc12", "values": [{"measurement": "PARP % inhib @ 1 uM", "setting": "PARP-HSA enzyme", "value": 0, "unit": "%"}, {"measurement": "inhibition at 10 µM", "setting": "recombinant human CK2", "value": -7, "unit": "%"}]}, {"smiles": "O=C(O)c1ccc2c3sccc3c(=O)n(CCCO)c2c1", "values": [{"measurement": "PARP % inhib @ 1 uM", "setting": "PARP-HSA enzyme", "value": 21, "unit": "%"}]}, {"smiles": "O=c1[nH]c2cc(-c3nn[nH]n3)ccc2c2sccc12", "values": [{"measurement": "PARP % inhib @ 1 uM", "setting": "PARP-HSA enzyme", "value": 39, "unit": "%"}]}, {"smiles": "CN(C)CCn1c(=O)c2ccsc2c2ccc(C(=O)O)cc21", "values": [{"measurement": "PARP % inhib @ 1 uM", "setting": "PARP-HSA enzyme", "value": 5, "unit": "%"}]}, {"smiles": "COc1cccc(Nc2nc3cc(C(=O)O)ccc3c3cnccc23)c1", "values": [{"measurement": "IC50", "setting": "MV-4-11", "value": 1.12, "unit": "µM"}, {"measurement": "IC50", "setting": "Jurkat", "value": 6.52, "unit": "µM"}, {"measurement": "IC50", "setting": "K-562 [1]", "value": 5.86, "unit": "µM"}, {"measurement": "inhibition at 0.5 µM", "setting": "recombinant human PIM1; cell-free", "value": 75.9, "unit": "%"}, {"measurement": "pIC50", "setting": "recombinant human PIM1; cell-free", "value": 7.06}, {"measurement": "pIC50", "setting": "Flt3", "value": 8.05}]}, {"smiles": "O=C(O)c1ccc2c(c1)nc(Nc1ccc(F)c(Cl)c1)c1ccncc12", "values": [{"measurement": "IC50", "setting": "MV-4-11", "value": 1.7, "unit": "µM"}, {"measurement": "IC50", "setting": "Jurkat", "value": 2.68, "unit": "µM"}, {"measurement": "IC50", "setting": "[2]", "value": 4.34, "unit": "µM"}, {"measurement": "IC50", "setting": "K-562 [1]", "value": 7.44, "unit": "µM"}, {"measurement": "inhibition at 0.5 µM", "setting": "recombinant human PIM1; cell-free", "value": 82, "unit": "%"}, {"measurement": "pIC50", "setting": "recombinant human PIM1; cell-free", "value": 6.94}, {"measurement": "pIC50", "setting": "Flt3", "value": 7.39}]}, {"smiles": "O=C(O)c1ccc2c(c1)nc(Nc1cccc(F)c1)c1ccsc12", "values": [{"measurement": "IC50", "setting": "MV-4-11", "value": 0.475, "unit": "µM"}, {"measurement": "IC50", "setting": "Jurkat", "value": 5.92, "unit": "µM"}, {"measurement": "IC50", "setting": "[2]", "value": "> 10", "unit": "µM"}, {"measurement": "IC50", "setting": "K-562 [1]", "value": "> 10", "unit": "µM"}, {"measurement": "inhibition at 0.5 µM", "setting": "recombinant human PIM1; cell-free", "value": 82.7, "unit": "%"}, {"measurement": "pIC50", "setting": "recombinant human PIM1; cell-free", "value": 6.87}]}, {"smiles": "O=C(O)c1ccc2c(c1)nc(Nc1cccc(Cl)c1)c1ncncc12", "values": [{"measurement": "IC50", "setting": "MV-4-11", "value": "> 10", "unit": "µM"}, {"measurement": "IC50", "setting": "Jurkat", "value": 0.882, "unit": "µM"}, {"measurement": "IC50", "setting": "[2]", "value": 7.19, "unit": "µM"}, {"measurement": "IC50", "setting": "K-562 [1]", "value": 1.13, "unit": "µM"}, {"measurement": "inhibition at 0.5 µM", "setting": "recombinant human PIM1; cell-free", "value": 68.2, "unit": "%"}, {"measurement": "pIC50", "setting": "recombinant human PIM1; cell-free", "value": 6.43}]}, {"smiles": "O=C(O)c1ccc2c(c1)nc(Nc1ccc(Cl)cc1)c1ccncc12", "values": [{"measurement": "IC50", "setting": "MV-4-11", "value": 1.56, "unit": "µM"}, {"measurement": "IC50", "setting": "Jurkat", "value": 2.52, "unit": "µM"}, {"measurement": "IC50", "setting": "[2]", "value": 6.72, "unit": "µM"}, {"measurement": "IC50", "setting": "K-562 [1]", "value": 8.65, "unit": "µM"}, {"measurement": "inhibition at 0.5 µM", "setting": "recombinant human PIM1; cell-free", "value": 83, "unit": "%"}, {"measurement": "pIC50", "setting": "recombinant human PIM1; cell-free", "value": 6.55}]}, {"smiles": "NCc1ccc(Nc2nc3c(-c4nnc[nH]4)cccc3c3cnccc23)cc1", "values": [{"measurement": "pIC50", "setting": "[3]", "value": "< 4.52"}, {"measurement": "pIC50", "setting": "K-562 [4]", "value": "< 5.00"}, {"measurement": "pIC50", "setting": "MDA MB231", "value": 5.02}, {"measurement": "pIC50", "setting": "MV-411", "value": "> 7.00"}, {"measurement": "pIC50", "setting": "recombinant human PIM1", "value": "> 7.00"}]}]}
